Experimental findings from article PMC9607427, “Novel 7-Chloro-(4-thioalkylquinoline) Derivatives: Synthesis and Antiproliferative Activity through Inducing Apoptosis and DNA/RNA Damage” (Pharmaceuticals, 2022) are described below.

Usually IC50 stands for the concentration that gives 50% inhibition.

The subject of series [1] is A549 (lung adenocarcinoma). In words: Cytotoxic MTS assay, A549. The class given is cell-based, human. The method, then: (§1) In vitro cytotoxic activity of final compounds 5–82 was evaluated after 3 days of incubation against eight cell lines derived from human solid tumors including lung (A549 cells) and colon (HCT116 and HCT116p53−/−) carcinomas, as well as leukemia cell lines (CCRF-CEM, CEM-DNR, K562, and K562-TAX) and osteosarcoma (U2OS cells). For comparison, non-malignant BJ and MRC-5 fibroblasts, and BJLD and MCR-5LD fibroblasts doxorubicin-resistant cell lines were used. Concentrations inhibiting the cell growth by 50% (IC50) were determined using a quantitative metabolic staining with 3-(4,5-dimethylthiazol-2yl)-5-(3-carboxymethoxyphenyl)-2-(4-sulfophenyl)-2H-tetrazolium (MTS) and are summarized in (Table 3).
(§2) Cytotoxic activity was determined by MTS assay following 72 h of incubation. IC50 is the lowest concentration that kills 50% of cells. The standard deviation in cytotoxicity assays is typically up to 20% of the average value. […] The tested cell lines: A549 (lung adenocarcinoma), BJ (noncancerous human fibroblasts from foreskin), BJLD (human lung fibroblast doxorubicin-resistant), CCRF-CEM (childhood T cell acute lymphoblastic leukemia), a daunorubicin-resistant subline of CCRF-CEM cells (CEM-DNR bulk), HCT116 (colorectal carcinoma), HCT116p53−/− (HCT116 with deleted p53 gene), K562 (chronic myeloid leukemia), K562-TAX (chronic myeloid leukemia paclitaxel-resistant subline), MRC-5 (noncancerous human lung fibroblasts), MRC-5LD (noncancerous human lung fibroblasts doxorubicin-resistant), and U2OS (osteosarcoma).
(§3) All cell lines were purchased from the American Tissue Culture Collection (ATCC). The A549 cell line is lung adenocarcinoma. MRC-5 and BJ cell lines were used as a non-tumor control and represent human fibroblasts. (MRC-5 LD and BJLD) are doxorubicin-resistant human lung fibroblast cell lines. The CCRF-CEM line is derived from T lymphoblastic leukemia, evincing high chemosensitivity, whereas K562 represent cells from an […] patient sample with bcr-abl translocation. The daunorubicin-resistant subline of CCRF-CEM cells (CEM-DNR bulk) and paclitaxel-resistant subline K562-TAX were selected in our laboratory by the cultivation of maternal cell lines in increasing concentrations of daunorubicin or paclitaxel, respectively. The CEM-DNR bulk cells overexpress MRP-1 and P-glycoprotein protein, whereas K562-TAX cells overexpress P-glycoprotein only. Both proteins belong to the family of ABC transporters and are involved in the primary and/or acquired multidrug-resistance phenomenon. The U2OS cell line is derived from osteosarcoma, HCT116 is a colorectal tumor cell line and its p53 gene knock-down counterpart (HCT116p53−/−, Horizon Discovery Ltd., Cambridge, UK) is a model of human cancers with p53 mutation frequently associated with poor prognosis. The cells were maintained in nunc/corning 80 cm^2 plastic tissue culture flasks and cultured in a cell culture medium according to ATCC or Horizon recommendations (DMEM/RPMI 1640 with 5 g/L glucose, 2 mM glutamine, 100 U/mL penicillin, […], 10% fetal calf serum, and NaHCO3).
(§4) The activity of compounds was determined using a standard 3-(4,5-dimethylthiazol-2-yl)-5-(3-carboxymethoxyphenyl)-2-(4-sulfophenyl)-2H-tetrazolium (MTS) and it was performed at the Institute of Molecular and Translational Medicine by a robotic platform (High-ResBiosolutions). Cell suspensions were prepared and diluted according to the particular cell type and the expected target cell density (25,000–35,000 cells/mL based on cell growth characteristics). Cells were added by automatic pipettor (30 µL) into 384-well microtiter plates. All tested compounds were dissolved in 100% DMSO and four-fold dilutions of the intended test concentration were added in 0.15 µL aliquots at time zero to the microtiter plate wells by the echo acoustic non-contact liquid handler Echo550 (Labcyte). […]
For orientation: Tetrazolium dyes change colour on reduction, which living cells bring about.

The nature of a further series: Cytotoxic MTS assay, BJ. The class given is cell-based, human. As to conditions: human, BJ cells (noncancerous foreskin fibroblasts); MTS, 72 h of incubation. The method, then: as §1, §2, §3, §4
Series [2] is described as follows: Cytotoxic MTS assay, BJLD. The format is cell-based, human. As to conditions: human, BJLD cells (fibroblasts, doxorubicin-resistant); MTS, 72 h of incubation. The method, then:
as §1, §2, §3, §4

Series [3] has as its system CCRF-CEM (childhood T cell acute lymphoblastic leukemia). The series can be described thus: Cytotoxic MTS assay, CCRF-CEM. The format is cell-based, human. On the procedure: as §1, §2, §3, §4
Series [4] concerns CEM-DNR bulk (daunorubicin-resistant subline of CCRF-CEM cells). In words: Cytotoxic MTS assay, CEM-DNR. The format is cell-based, human. The method, then: as §1, §2, §3, §4
For series [5], the system named is HCT116 (colorectal carcinoma). The series can be described thus: Cytotoxic MTS assay, HCT116. The class given is cell-based, human. On the procedure:
as §1, §2, §3, §4

Series [6] concerns HCT116p53−/− (HCT116 with deleted p53 gene). In words: Cytotoxic MTS assay, HCT116p53−/−. The class given is cell-based, human. On the procedure:
as §1, §2, §3, §4

The test system of series [7] is K562 (chronic myeloid leukemia). In words: Cytotoxic MTS assay, K562. The class given is cell-based, human. On the procedure: as §1, §2, §3, §4
Series [8] deals with K562-TAX (chronic myeloid leukemia paclitaxel-resistant subline). In words: Cytotoxic MTS assay, K562-TAX. The format is cell-based, human. The method, then:
as §1, §2, §3, §4

A short description of series [9]: Cytotoxic MTS assay, MRC-5. As to conditions: human, MRC-5 cells (noncancerous lung fibroblasts); MTS, 72 h of incubation. The class given is cell-based, human. On the procedure:
as §1, §2, §3, §4

Series [10] is described as follows: Cytotoxic MTS assay, MRC-5LD. The class given is cell-based, human. As to conditions: human; MTS, 72 h of incubation; read-out: Cytotoxic activity IC50, MRC5-LD. The method, then:
as §1, §2, §3, §4

Another series has as its system U2OS (osteosarcoma). In words: Cytotoxic MTS assay, U2OS. The class given is cell-based, human. On the procedure:
as §1, §2, §3, §4

The test system of series [11] is BJ (noncancerous human fibroblasts from foreskin). In words: Cytotoxic MTS assay, BJ. The class given is cell-based. The method, then:
as §1, §2, §3, §4

Series [12] has as its system BJLD (human lung fibroblast doxorubicin-resistant). The series can be described thus: Cytotoxic MTS assay, BJLD. The format is cell-based. On the procedure: as §1, §2, §3, §4
For series [13], the system named is MRC-5 (noncancerous human lung fibroblasts). The series can be described thus: Cytotoxic MTS assay, MRC-5. The format is cell-based. On the procedure: as §1, §2, §3, §4
Series [14] has as its system MRC-5LD (noncancerous human lung fibroblasts doxorubicin-resistant). The series can be described thus: Cytotoxic MTS assay, MRC-5LD. The class given is cell-based. On the procedure: as §1, §2, §3, §4

Where two headings read alike, the source gives them in different places.

`[O-][S+](CCO)c1ccnc2cc(Cl)ccc12` (stereo not drawn) [Compound 41, 2-[(7-Chloroquinolin-4-yl)sulfinyl]ethanol]: the IC50 is 34.4 µM in series [1] (Homo sapiens, A549, MTS, 72 h of incubation, read-out: Cytotoxic activity IC50, A549); 4.52 µM in series [3] (Homo sapiens, CCRF-CEM, MTS, 72 h of incubation, read-out: Cytotoxic activity IC50, CCRF-CEM); 35.1 µM in series [4] (Homo sapiens, CEM-DNR, MTS, 72 h of incubation, read-out: Cytotoxic activity IC50, CEM-DNR); 23.5 µM in series [5] (Homo sapiens, HCT-116, MTS, 72 h of incubation, read-out: Cytotoxic activity IC50, HCT116); 22.5 µM in series [6] (Homo sapiens, HCT-116, MTS, 72 h of incubation, read-out: Cytotoxic activity IC50, HCT116-p53); 27.8 µM in series [7] (Homo sapiens, K562, MTS, 72 h of incubation, read-out: Cytotoxic activity IC50, K562). For the same compound, the IC50 in [8] (Homo sapiens, K562-Tax, MTS, 72 h of incubation, read-out: Cytotoxic activity IC50, K562-TAX) came out at 21.4 µM; with U2OS (osteosarcoma) (Homo sapiens, U2OS, MTS, 72 h of incubation, read-out: Cytotoxic activity IC50, U2OS) it was 22.1 µM. For the same compound, the IC50 at 72 h came out at 33.3 µM in the series “Cytotoxic MTS assay, BJ”; 28.5 µM in series [2]; 26.5 µM in series [9]; 24.5 µM in series [10].

Consider `COc1cccc(C(=O)OCCS(=O)(=O)c2cc[n+]([O-])c3cc(Cl)ccc23)c1OC` [Compound 64, 2-[(N-Oxide 7-chloroquinolin-4-yl)sulfonyl]ethyl-2,3-dimethoxybenzoate], for which the IC50 amounted to 28.4 µM in series [1]; 9.19 µM in [11]; 8.95 µM in series [12]; 0.71 µM in [3]; 8.99 µM in series [4]; 8.18 µM in series [5]. Also, the IC50 was determined as 7.68 µM in series [6]; 5.51 µM in series [7]; 5.65 µM in [8]; 6.08 µM in series [13]; 3.28 µM in series [14]; 7.43 µM in the series on U2OS (osteosarcoma).

For the compound `COc1ccc(OC)c(C(=O)OCCCS(=O)(=O)c2cc[n+]([O-])c3cc(Cl)ccc23)c1` [Compound 75, 3-[(N-Oxide 7-chloroquinolin-4-yl)sulfonyl]propyl-2,5-dimethoxybenzoate], the IC50 amounted to 7.28 µM in series [1]; 26.6 µM in [11]; 17.8 µM in [12]; 1.45 µM in series [3]; 7.22 µM in series [4]; 5.37 µM in series [5]. The IC50 is 6.86 µM in [6]; 7.14 µM in series [7]; 9.56 µM in series [8]; 21.5 µM in series [13]; 18.9 µM in series [14]; 6.4 µM in the series on U2OS (osteosarcoma).

As to `COc1ccccc1C(=O)OCCCS(=O)(=O)c1cc[n+]([O-])c2cc(Cl)ccc12` [Compound 78, 3-[(N-Oxide 7-chloroquinolin-4-yl)sulfonyl]propyl-2-methoxybenzoate], the IC50 is 7.75 µM in series [1]; 25 µM in series [11]; 19.7 µM in series [12]; 2.63 µM in [3]; 9.18 µM in series [4]; 5.64 µM in series [5]. The IC50 in series [6] is 6.99 µM; in [7], 7.37 µM; in series [8], 8.78 µM; in series [13], 22.6 µM; in [14] it was 19.5 µM; with U2OS (osteosarcoma), 7.18 µM.

For `COc1cc(OC)c(C(=O)OCCCS(=O)(=O)c2cc[n+]([O-])c3cc(Cl)ccc23)cc1OC` [Compound 76, 3-[(N-Oxide 7-chloroquinolin-4-yl)sulfonyl]propyl-2,4,5-trimethoxybenzoate], the IC50 stood at 11.4 µM in series [1]; 35.7 µM in [11]; 24.4 µM in [12]; 2.22 µM in series [3]; 18.1 µM in series [4]; 7.96 µM in series [5]. Further, the IC50 in [6] stood at 8.66 µM; in series [7], 8.77 µM; in series [8], 19.9 µM; in series [13] it was 22.5 µM; in series [14] it was 19.6 µM; with U2OS (osteosarcoma), 9.33 µM.

Take `COc1cc(C(=O)OCCCS(=O)(=O)c2cc[n+]([O-])c3cc(Cl)ccc23)cc(OC)c1OC` [Compound 77, 3-[(N-Oxide 7-chloroquinolin-4-yl)sulfonyl]propyl-3,4,5-trimethoxybenzoate]: the IC50 in series [1] was 9.02 µM; in series [11], 28.6 µM; in [12], 21.6 µM; in series [3], 1.58 µM; in [4] it was 12 µM; in series [5] it was 6.51 µM. For the same compound, the IC50 amounted to 6.75 µM in series [6]; 7.5 µM in series [7]; 10.9 µM in series [8]; 25.6 µM in series [13]; 20.1 µM in [14]; 7.81 µM in the series with U2OS (osteosarcoma).

Consider `O=C(OCCCS(=O)(=O)c1cc[n+]([O-])c2cc(Cl)ccc12)c1ccc(C(F)(F)F)cc1` [Compound 82, 3-[(N-Oxide 7-chloroquinolin-4-yl)sulfonyl]propyl-4-(trifluoromethyl)benzoate], for which the IC50 in series [1] was determined as 6.66 µM; in series [11], 23.5 µM; in series [12], 13.9 µM; in series [3], 1.05 µM; in series [4], 3.46 µM; in series [5], 4.9 µM. Also, the IC50 in series [6] was 6.59 µM; in series [7] it was 6.24 µM; in series [8] it was 4.01 µM; in series [13], 23.7 µM; in [14], 19.8 µM; with U2OS (osteosarcoma) it was 5.05 µM.

As to `Cc1ccc([N+](=O)[O-])c(C(=O)OCCCS(=O)(=O)c2cc[n+]([O-])c3cc(Cl)ccc23)c1` [Compound 80, 3-[(N-Oxide 7-chloroquinolin-4-yl)sulfonyl]propyl-5-methyl-2-nitrobenzoate], the IC50 in [1] was 6.44 µM; in [11], 22.2 µM; in series [12], 15.9 µM; in series [3], 1.49 µM; in series [4], 6.78 µM; in series [5] it was 4.61 µM. Also, the IC50 was determined as 6 µM in series [6]; 6.75 µM in series [7]; 6 µM in series [8]; 20 µM in series [13]; 16.3 µM in [14]; 5.74 µM in the series on U2OS (osteosarcoma).
